ChEMBL document CHEMBL4507276 (2021)

Key:
[1] = biological target: Protein kinase C epsilon type (Homo sapiens) (UniProt Q02156); details: Compound concentration 1000.0 nM
[2] = biological target: T1, Alpha-1A adrenergic receptor (Homo sapiens) (UniProt P35348); experiment: ALPHA1AH_ANTAG Cerep selectivity data (BI); details: filed as antagonist, Compound concentration 20.0 uM
T1 sequence (whole entry): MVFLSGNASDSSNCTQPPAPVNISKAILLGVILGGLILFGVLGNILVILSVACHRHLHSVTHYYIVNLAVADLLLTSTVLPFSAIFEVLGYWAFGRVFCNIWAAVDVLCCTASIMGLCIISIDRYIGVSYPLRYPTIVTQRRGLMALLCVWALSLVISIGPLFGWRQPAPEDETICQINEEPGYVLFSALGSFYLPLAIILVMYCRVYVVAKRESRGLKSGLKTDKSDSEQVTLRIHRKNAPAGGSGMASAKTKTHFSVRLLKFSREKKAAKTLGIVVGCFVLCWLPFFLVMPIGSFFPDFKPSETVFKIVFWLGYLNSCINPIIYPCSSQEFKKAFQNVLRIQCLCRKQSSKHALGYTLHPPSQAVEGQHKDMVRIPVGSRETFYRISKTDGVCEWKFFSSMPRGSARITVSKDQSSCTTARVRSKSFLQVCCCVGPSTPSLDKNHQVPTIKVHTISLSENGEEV

[3] = biological target: Apelin receptor (Homo sapiens) (UniProt P35414); experiment: APJH_AGON Cerep selectivity data (BI); details: filed as agonist, Compound concentration 20.0 uM
[4] = biological target: Cannabinoid receptor 1 (Homo sapiens) (UniProt P21554); experiment: CB1/CENTR/H Cerep selectivity data (BI); details: Compound concentration 20.0 uM
[5] = biological target: Glucocorticoid receptor (Homo sapiens) (UniProt P04150); experiment: GCORTICOID/H Cerep selectivity data (BI); details: Compound concentration 20.0 uM
Homo sapiens = species on record: Homo sapiens; experiment: HIV-1/H Cerep selectivity data (BI); details: Compound concentration 20.0 uM
[6] = biological target: Tyrosine-protein kinase Lyn (Homo sapiens) (UniProt P07948); experiment: LYNAKINASE(H) Cerep selectivity data (BI); details: Compound concentration 20.0 uM
[7] = biological target: 72 kDa type IV collagenase (Homo sapiens) (UniProt P08253); experiment: MMP-2 (H) Cerep selectivity data (BI); details: Compound concentration 20.0 uM
[8] = biological target: Sodium channel regulatory subunit beta-1 (Rattus norvegicus) (UniProt Q00954); experiment: NA+/SITE2/R Cerep selectivity data (BI); details: Compound concentration 20.0 uM
[9] = biological target: Nociceptin receptor (Homo sapiens) (UniProt P41146); experiment: ORL1/H Cerep selectivity data (BI); details: Compound concentration 20.0 uM
[10] = biological target: 3',5'-cyclic-AMP phosphodiesterase 4D (Homo sapiens) (UniProt Q08499); experiment: PDE4D2 Cerep selectivity data (BI); details: Compound concentration 20.0 uM
[11] = biological target: Vasopressin V2 receptor (Homo sapiens) (UniProt P30518); experiment: V2/H Cerep selectivity data (BI); details: Compound concentration 20.0 uM
[12] = biological target: Endothelin receptor type B (Homo sapiens) (UniProt P24530); experiment: ETB/HUM Eurofins-Panlabs selectivity data (BI); details: Compound concentration 10.0 uM
[13] = biological target: Glucocorticoid receptor (Homo sapiens) (UniProt P04150); experiment: GLUCOCORTICO Eurofins-Panlabs selectivity data (BI); details: Compound concentration 10.0 uM
[14] = biological target: Cyclin-dependent kinase 9 (Homo sapiens) (UniProt P50750); experiment: CDK9CYCLIN Invitrogen selectivity data (BI); details: Compound concentration 3.0 uM
[15] = biological target: Casein kinase I isoform delta (Homo sapiens) (UniProt P48730); experiment: CSNK1D Invitrogen selectivity data (BI); details: Compound concentration 3.0 uM
[16] = biological target: T2, Ephrin type-B receptor 3 (Homo sapiens) (UniProt P54753); experiment: EPHB3 Invitrogen selectivity data (BI); details: Compound concentration 3.0 uM
T2 sequence (whole entry): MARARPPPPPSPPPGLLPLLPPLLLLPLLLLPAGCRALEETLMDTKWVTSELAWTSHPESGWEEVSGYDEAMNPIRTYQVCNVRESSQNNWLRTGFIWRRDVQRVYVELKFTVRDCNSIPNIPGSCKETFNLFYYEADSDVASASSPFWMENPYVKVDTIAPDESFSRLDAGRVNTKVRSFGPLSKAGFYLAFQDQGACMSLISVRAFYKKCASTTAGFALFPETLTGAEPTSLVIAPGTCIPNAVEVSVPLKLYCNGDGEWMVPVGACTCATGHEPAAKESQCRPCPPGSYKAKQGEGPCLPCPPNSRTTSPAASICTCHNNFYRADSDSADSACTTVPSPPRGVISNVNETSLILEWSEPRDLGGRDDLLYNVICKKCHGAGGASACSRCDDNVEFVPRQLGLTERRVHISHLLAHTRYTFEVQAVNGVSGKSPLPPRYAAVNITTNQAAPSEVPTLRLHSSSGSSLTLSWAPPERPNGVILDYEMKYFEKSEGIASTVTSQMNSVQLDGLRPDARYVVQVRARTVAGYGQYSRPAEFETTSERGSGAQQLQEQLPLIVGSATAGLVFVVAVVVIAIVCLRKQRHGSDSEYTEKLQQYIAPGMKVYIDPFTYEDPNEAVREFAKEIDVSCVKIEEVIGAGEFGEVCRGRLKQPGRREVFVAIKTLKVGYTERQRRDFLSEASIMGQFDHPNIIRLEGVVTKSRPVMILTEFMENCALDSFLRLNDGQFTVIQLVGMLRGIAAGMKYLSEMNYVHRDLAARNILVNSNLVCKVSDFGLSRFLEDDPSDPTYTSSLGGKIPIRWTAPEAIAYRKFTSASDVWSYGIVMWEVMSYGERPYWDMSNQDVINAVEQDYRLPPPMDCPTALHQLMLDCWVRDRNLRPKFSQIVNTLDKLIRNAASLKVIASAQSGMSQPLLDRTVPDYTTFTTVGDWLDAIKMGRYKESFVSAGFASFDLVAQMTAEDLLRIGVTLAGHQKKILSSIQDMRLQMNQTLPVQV

[17] = biological target: Serine/threonine-protein kinase mTOR (Homo sapiens) (UniProt P42345); experiment: FRAP1 (MTOR) Invitrogen selectivity data (BI); details: Compound concentration 3.0 uM
[18] = biological target: Glycogen synthase kinase-3 beta (Homo sapiens) (UniProt P49841); experiment: GSK3B Invitrogen selectivity data (BI); details: Compound concentration 3.0 uM
[19] = biological target: Homeodomain-interacting protein kinase 1 (Homo sapiens) (UniProt Q86Z02); experiment: HIPK1 Invitrogen selectivity data (BI); details: Compound concentration 3.0 uM
[20] = biological target: Serine/threonine-protein kinase PAK 1 (Homo sapiens) (UniProt Q13153); experiment: PAK1 Invitrogen selectivity data (BI); details: Compound concentration 3.0 uM
[21] = biological target: Protein kinase C eta type (Homo sapiens) (UniProt P24723); experiment: PRKCH Invitrogen selectivity data (BI); details: Compound concentration 3.0 uM
[22] = biological target: Protein kinase C theta type (Homo sapiens) (UniProt Q04759); experiment: PRKCQ Invitrogen selectivity data (BI); details: Compound concentration 3.0 uM
[23] = biological target: Proto-oncogene tyrosine-protein kinase ROS (Homo sapiens) (UniProt P08922); experiment: ROS1 Invitrogen selectivity data (BI); details: Compound concentration 3.0 uM
[24] = biological target: Serine/threonine-protein kinase SIK2 (Homo sapiens) (UniProt Q9H0K1); experiment: SNF1LK2 Invitrogen selectivity data (BI); details: Compound concentration 3.0 uM
[25] = biological target: Phosphorylase b kinase gamma catalytic chain, liver/testis isoform (Homo sapiens) (UniProt P15735); experiment: PHKG2 Invitrogen selectivity data (BI); details: Compound concentration 3.0 uM

Measured: residual activity

Chain of Glucocorticoid receptor (Homo sapiens) (P04150 whole entry): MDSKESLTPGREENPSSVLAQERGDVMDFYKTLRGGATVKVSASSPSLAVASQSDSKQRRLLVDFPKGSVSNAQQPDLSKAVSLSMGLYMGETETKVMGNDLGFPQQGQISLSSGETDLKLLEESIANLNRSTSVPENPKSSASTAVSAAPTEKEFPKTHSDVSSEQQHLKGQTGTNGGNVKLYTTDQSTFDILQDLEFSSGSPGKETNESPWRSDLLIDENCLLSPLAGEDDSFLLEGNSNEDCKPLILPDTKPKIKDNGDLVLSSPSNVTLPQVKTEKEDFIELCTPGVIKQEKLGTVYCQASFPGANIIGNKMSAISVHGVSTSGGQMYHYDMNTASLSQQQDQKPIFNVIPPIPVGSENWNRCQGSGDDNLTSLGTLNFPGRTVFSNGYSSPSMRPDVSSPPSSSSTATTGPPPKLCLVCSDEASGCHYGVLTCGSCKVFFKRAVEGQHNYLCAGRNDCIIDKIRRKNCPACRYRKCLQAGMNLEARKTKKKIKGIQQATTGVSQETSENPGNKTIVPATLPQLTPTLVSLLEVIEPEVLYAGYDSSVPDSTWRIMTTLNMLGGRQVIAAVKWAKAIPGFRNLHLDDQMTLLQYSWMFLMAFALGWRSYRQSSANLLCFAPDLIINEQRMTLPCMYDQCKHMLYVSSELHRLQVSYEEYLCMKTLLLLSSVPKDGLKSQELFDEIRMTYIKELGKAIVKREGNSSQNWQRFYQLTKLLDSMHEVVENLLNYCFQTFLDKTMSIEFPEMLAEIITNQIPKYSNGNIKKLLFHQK
Chain of Protein kinase C epsilon type (Homo sapiens) (Q02156 whole entry): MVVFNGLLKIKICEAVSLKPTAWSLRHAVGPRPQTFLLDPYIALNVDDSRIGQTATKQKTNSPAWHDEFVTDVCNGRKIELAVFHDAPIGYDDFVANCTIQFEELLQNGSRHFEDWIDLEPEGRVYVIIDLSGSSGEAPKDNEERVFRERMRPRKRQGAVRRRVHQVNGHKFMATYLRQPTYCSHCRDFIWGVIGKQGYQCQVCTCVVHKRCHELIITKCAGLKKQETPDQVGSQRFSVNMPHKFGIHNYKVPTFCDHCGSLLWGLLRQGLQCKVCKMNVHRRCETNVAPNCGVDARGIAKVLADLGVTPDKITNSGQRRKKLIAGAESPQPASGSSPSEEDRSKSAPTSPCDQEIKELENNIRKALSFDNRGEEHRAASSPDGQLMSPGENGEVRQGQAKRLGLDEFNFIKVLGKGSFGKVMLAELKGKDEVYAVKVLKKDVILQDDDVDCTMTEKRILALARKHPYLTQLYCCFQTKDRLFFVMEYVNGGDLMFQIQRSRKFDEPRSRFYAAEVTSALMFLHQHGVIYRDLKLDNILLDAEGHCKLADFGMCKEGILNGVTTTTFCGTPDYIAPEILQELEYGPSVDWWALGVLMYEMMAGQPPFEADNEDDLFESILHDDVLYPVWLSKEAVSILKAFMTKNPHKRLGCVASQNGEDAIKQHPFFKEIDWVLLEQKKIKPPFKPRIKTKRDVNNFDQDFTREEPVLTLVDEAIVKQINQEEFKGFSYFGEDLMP
Chain of Cannabinoid receptor 1 (Homo sapiens) (P21554 whole entry): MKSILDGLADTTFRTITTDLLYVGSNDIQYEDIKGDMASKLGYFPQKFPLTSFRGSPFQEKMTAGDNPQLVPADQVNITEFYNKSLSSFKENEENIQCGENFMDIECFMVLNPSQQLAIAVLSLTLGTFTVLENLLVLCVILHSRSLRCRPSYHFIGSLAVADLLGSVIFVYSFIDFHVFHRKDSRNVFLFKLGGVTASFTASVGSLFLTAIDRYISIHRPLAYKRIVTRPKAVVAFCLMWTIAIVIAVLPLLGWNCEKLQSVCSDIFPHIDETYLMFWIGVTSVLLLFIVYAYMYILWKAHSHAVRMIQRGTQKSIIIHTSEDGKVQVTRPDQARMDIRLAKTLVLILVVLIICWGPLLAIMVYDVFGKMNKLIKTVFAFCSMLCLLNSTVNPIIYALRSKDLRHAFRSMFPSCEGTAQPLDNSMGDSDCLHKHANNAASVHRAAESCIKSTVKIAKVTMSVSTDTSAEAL
Chain of 72 kDa type IV collagenase (Homo sapiens) (P08253 110-660 limits assumed): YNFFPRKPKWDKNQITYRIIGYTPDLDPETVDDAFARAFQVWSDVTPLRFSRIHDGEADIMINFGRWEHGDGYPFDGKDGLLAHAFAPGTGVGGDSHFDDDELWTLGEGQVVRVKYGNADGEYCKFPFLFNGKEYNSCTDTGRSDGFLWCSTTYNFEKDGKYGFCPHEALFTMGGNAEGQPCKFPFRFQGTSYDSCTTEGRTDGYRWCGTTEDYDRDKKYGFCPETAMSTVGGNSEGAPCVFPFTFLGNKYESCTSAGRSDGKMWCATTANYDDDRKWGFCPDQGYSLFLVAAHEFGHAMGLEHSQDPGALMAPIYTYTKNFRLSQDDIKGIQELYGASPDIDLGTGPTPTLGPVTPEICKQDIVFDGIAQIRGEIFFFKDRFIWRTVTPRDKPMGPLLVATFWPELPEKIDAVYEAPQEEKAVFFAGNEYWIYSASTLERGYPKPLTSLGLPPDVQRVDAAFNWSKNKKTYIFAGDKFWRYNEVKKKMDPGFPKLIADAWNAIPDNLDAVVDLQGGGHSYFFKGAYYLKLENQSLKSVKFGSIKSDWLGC
Chain of Apelin receptor (Homo sapiens) (P35414 whole entry): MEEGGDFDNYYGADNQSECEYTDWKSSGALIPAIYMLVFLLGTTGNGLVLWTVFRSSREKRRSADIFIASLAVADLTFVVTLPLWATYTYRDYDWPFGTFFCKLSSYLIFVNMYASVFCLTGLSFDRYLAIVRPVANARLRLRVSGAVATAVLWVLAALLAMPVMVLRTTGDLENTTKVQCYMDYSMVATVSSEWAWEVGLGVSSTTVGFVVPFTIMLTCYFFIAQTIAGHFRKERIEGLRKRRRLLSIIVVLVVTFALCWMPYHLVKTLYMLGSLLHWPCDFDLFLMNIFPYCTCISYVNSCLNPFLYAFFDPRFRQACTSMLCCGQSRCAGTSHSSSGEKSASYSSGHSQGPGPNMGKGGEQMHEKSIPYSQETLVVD
Chain of Endothelin receptor type B (Homo sapiens) (P24530 whole entry): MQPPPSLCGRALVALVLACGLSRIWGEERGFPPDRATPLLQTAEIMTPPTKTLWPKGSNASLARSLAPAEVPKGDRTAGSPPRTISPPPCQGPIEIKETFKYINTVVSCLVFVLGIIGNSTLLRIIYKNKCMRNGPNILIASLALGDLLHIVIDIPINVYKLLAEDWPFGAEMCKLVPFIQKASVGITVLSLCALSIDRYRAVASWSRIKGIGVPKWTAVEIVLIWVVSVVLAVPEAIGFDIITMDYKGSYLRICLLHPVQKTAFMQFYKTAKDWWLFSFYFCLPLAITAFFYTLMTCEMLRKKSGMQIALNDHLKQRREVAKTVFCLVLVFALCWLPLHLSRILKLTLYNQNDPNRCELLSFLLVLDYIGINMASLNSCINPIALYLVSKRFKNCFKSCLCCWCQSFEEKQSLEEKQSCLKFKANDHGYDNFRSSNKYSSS
Chain of Tyrosine-protein kinase Lyn (Homo sapiens) (P07948 2-512 limits assumed): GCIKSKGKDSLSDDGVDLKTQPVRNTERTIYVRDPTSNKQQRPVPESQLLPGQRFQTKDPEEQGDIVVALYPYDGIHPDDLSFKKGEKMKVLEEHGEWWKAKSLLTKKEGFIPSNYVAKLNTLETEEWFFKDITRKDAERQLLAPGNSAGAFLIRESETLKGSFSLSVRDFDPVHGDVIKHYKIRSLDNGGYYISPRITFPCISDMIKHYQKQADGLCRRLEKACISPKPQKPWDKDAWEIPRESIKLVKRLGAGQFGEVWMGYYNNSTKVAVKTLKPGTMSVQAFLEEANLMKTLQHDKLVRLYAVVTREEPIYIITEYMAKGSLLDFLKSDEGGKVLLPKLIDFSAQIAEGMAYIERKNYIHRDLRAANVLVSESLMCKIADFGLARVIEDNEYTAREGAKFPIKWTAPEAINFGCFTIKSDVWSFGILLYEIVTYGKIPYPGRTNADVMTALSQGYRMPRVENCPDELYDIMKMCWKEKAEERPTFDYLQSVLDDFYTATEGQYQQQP
Chain of Protein kinase C theta type (Homo sapiens) (Q04759 whole entry, looked up): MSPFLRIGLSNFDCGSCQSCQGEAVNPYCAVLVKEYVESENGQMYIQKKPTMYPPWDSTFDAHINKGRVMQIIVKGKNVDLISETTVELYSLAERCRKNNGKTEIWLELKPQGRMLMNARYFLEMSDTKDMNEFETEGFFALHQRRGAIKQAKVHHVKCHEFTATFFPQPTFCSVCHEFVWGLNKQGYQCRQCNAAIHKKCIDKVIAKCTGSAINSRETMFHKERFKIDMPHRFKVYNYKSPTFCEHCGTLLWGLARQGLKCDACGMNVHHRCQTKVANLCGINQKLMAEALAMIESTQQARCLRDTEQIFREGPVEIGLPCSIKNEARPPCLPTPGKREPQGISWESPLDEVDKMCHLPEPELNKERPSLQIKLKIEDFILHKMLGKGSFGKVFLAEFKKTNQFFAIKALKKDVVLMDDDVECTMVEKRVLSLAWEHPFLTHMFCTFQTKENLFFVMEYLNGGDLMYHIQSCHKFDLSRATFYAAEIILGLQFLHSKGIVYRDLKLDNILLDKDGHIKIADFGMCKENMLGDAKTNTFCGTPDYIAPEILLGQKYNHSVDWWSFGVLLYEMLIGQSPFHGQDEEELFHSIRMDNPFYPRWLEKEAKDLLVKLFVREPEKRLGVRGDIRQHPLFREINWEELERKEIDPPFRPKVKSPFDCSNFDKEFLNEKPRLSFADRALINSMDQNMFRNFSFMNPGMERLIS
Chain of Sodium channel regulatory subunit beta-1 (Rattus norvegicus) (Q00954 whole entry): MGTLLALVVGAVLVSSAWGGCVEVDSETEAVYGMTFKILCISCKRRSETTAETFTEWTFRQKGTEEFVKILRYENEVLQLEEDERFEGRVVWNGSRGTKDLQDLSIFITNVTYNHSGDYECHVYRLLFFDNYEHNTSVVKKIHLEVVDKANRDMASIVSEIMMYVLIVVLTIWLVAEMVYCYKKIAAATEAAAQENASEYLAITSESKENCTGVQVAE

CN(C)C(=O)Cn1cc(-c2nc(C3(c4ccc(-c5cnc(N)nc5)cc4)CC3)no2)cn1 [BI 0153]
inactive: [1] 90%

CN(C)C(=O)Cn1cc(-c2nc([C@@](C)(c3ccc(-c4cnc(N)nc4)cc3)C3CC3)no2)cn1 [BI 665915]
inactive: [2] 99% | [3] 101% | [4] 88% | [5] 96% | Homo sapiens 100% | [6] 87% | [7] 96% | [8] 107% | [9] 91% | [10] 82% | [11] 102% | [12] 98% | [13] 111% | [14] 102% | [15] 97% | [16] 97% | [17] 104% | [18] 95.5% | [19] 97% | [20] 96% | [21] 86% | [22] 93.5% | [23] 97.5% | [24] 97.5% | [25] 97.5%
